Source: US20200283532A1, “TUMOUR-TARGETING PEPTIDE VARIANTS” (Cancer Research Technology Limited, priority 2017, published 2020)
Read-outs that look alike come from different tables or passages of the source.

How the values were obtained:
[1] = target: T1, αvβ6 integrin (A375Pβ6 cells) (Homo sapiens, UniProt P06756+P18564); test: Level of binding of biotinylated peptides to A375Pβ6 cells by flow cytometry; settings: mean of up to four experiments; for A) Affinity: mean activity relative to biotinylated A20FMDV2 (100 nM): binding to A375Pβ6 at 100 nM, flow cytometry, commercial biotinylated A20FMDV2 = 1.00
T1 construct: expressed in transfected cells; host or cells: A375Pβ6 (transduced A375P melanoma cells; control line A375Ppuro)
T1 sequence (P06756 31-889 limits assumed, stated change not applied): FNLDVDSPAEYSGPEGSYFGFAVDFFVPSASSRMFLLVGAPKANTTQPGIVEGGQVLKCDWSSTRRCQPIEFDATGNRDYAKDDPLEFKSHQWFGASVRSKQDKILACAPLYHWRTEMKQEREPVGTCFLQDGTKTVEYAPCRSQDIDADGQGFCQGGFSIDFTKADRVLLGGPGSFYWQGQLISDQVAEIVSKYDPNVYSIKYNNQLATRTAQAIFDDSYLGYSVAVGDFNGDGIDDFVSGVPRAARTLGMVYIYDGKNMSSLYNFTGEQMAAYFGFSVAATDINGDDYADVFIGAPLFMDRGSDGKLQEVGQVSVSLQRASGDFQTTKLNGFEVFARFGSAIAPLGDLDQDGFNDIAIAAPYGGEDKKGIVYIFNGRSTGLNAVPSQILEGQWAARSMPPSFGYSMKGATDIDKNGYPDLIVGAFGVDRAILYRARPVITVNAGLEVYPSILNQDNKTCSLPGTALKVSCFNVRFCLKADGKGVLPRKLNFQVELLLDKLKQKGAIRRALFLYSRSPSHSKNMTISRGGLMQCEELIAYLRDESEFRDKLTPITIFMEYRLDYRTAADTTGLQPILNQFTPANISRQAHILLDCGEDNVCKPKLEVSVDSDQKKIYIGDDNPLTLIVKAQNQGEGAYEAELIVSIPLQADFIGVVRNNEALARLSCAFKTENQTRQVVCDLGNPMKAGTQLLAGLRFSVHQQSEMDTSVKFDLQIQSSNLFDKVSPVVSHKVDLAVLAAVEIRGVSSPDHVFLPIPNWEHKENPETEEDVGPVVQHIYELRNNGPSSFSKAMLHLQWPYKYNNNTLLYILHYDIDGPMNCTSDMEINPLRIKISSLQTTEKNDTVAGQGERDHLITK
T1 sequence (P06756 891-1048 limits assumed, stated change not applied): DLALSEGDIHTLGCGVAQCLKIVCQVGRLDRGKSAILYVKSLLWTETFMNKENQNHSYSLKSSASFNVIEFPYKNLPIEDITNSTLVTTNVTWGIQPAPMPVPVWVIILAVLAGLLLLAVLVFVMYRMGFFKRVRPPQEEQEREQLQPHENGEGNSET
T1 sequence (P18564 22-788, stated change not applied): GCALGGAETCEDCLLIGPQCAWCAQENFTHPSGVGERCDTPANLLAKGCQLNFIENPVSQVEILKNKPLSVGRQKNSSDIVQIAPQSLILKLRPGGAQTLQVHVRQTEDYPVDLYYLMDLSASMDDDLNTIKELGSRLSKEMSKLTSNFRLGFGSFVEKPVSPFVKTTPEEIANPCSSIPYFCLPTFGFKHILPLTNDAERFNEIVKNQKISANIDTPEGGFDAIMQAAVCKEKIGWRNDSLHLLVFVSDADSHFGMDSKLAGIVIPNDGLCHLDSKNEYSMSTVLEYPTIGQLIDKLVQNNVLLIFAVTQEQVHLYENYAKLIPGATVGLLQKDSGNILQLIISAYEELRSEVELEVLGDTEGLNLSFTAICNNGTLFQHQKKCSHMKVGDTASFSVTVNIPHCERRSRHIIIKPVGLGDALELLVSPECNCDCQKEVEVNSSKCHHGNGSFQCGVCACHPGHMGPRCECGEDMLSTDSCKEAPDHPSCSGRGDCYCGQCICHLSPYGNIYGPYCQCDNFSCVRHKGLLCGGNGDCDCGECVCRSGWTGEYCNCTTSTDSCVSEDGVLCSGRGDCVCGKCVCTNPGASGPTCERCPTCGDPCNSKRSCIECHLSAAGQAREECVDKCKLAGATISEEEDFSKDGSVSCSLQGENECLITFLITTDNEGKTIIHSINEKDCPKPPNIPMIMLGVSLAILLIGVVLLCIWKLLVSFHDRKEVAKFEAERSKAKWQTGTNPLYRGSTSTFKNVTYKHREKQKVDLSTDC

A375Pβ6 cells = format: cell-based
Protocol: Cells were trypsinised and resuspended into DMEM (serum-free media) to prepare a cell suspension of 4×10^6 cells/ml. From this point on everything was kept on ice. 50 μl of cell suspension were aliquoted into each flow tube. Peptides were diluted in ice-cold serum-free media to 200 nM giving the final concentration of 100 nM when 50 μl was added to the cell samples. The peptides were left on ice for 15 minutes then washed twice with flow media and centrifuged for 3 minutes at 1200 rpm in between each wash step. Mouse anti-biotin (50 μl at 1:200) was added to each sample for 15 minutes, then wash steps were repeated. Apart from the 0 time point, each of the time point samples were put in the incubator at 37° C. and at 15, 30 and 45 minutes the cells were fixed in 4% formaldehyde in PBS for 10 minutes, washed once in PBS and 0.1% Triton X-100 detergent added for 5 minutes, before washing in PBS again. Goat anti-mouse IgG conjugated to AlexaFLUOR 488 (1:250) was added (50 μl) to each sample and left for 15 minutes on ice in the dark. Samples were washed as above and resuspended to 30 μl. Samples were examined on an Imagestream X Mark II (Amnis, Merck) Imagestream images were assessed for internalisation compared with the 0 minute samples using on board software.
Internalisation Assay Method—Flow Cytometry
Cells were prepared as above except that no detergent was added prior to detecting the biotin with antibodies. Samples were analysed on a FACScalibur (Bekton-Dickinson) cytometer.
To assess ability to be internalized by cells at 37° C. (and thus potential vectors for therapies) we used Imagestream® cytometry and flow cytometry. Imagestream® takes a fluorescence image of each cell (FIG. 2C) enabling image analysis of the fluorescence on the surface versus the intracellular compartment. Histograms in FIG. 2C plot internalization relative to the 0 minute time point. For flow cytometry we monitored the loss of surface expression as the peptides were internalized.

[2] = system: A375Pβ6 (αvβ6) and A375Puro (control) xenografts; test: Biodistribution of 111In-DTPA labelled peptides in tumour-bearing mice; format: in vivo, female CD1 Nu/Nu mice; settings: 111In-DTPA peptide iv, mean ± SEM
Protocol: 2×10^6 cells in 100 μl were injected subcutaneously into the shoulders of female CD1 Nu/Nu mice. Tumours were grown subcutaneously on the left (A375Puro) and on the right (A375136) shoulder over two weeks. Once tumours had grown to approximately 5 mm diameter peptides were radiolabelled with Indium-111, and analysed by Radio-HPLC to determine labelling efficiency. The labelled peptides were diluted in sterile PBS/BSA and were dosed to give 0.3MBq per animal. Mice were then intravenously (tail-vein) injected with the radiolabelled peptide and are culled after 1 hour. Blood, organs and tumours were removed, weighed and residual activity was measured on a gamma counter (LKB Compugamma) the next day. Data were expressed as % Injected Dose/g tissue (% ID/g).
Immunocompromised mice (n=3-5) bearing A375Ppuro and A37546 tumours on opposite shoulders were given intravenous (iv) injections of […] of radiolabelled peptides 22-26 then killed 1 h later. Major organs and blood were collected immediately, weighed, and radioactivity determined. The data in Table 3 show the behaviour of the five DTPA-conjugated peptides tested; data are expressed as mean % injected dose/g tissue.

Row | Substance | A) Affinity: mean activity relative to biotinylated A20FMDV2 (100 nM) [1] | B) Internalisation: mean % internalisation at 45 min relative to biotinylated A20FMDV2 (100 nM) (A375Pβ6 cells) | Relative Activity (A × B) (A375Pβ6 cells) | other results
1 | AcHN-NK(Biotin)VPNLRGDLQVLAQKVART-NH2 [Peptide 18] | 1.25 ± 0.26 | 0.87 ± 0.12 | 1.09 | Relative Activity value higher than the control peptide (A375Pβ6 cells): 9%
2 | AcHN-NK(Biotin)VPNLRGDLQVLAQKVART-OH [Peptide 16] | – | 1.05 ± 0.24 | 1.55 | Relative Activity value higher than the control peptide (A375Pβ6 cells): 55%
3 | DTPA-GNK(Biotin)VPNLRGDLQVLAQKVART-OH [Peptide 23] | 1.28 ± 0.23 | – | – | Relative Activity (A × B) (A375Pβ6 cells; binding affinity value multiplied by amount internalized, commercial biotinylated A20FMDV2 = 1.00): 1.24; B) Internalisation: mean % internalisation at 45 min relative to biotinylated A20FMDV2 (100 nM) (A375Pβ6 cells; flow cytometry, 100 nM, 45 min at 37° C., commercial biotinylated A20FMDV2 = 1.00): 0.97 ± 0.11; Bio-distribution, Blood ([2]; 1 h): 0.5 ± 0.16 % ID/g; Bio-distribution, Heart ([2]; 1 h): 0.6 ± 0.16 % ID/g; Bio-distribution, Intestines ([2]; 1 h): 3.8 ± 0.98 % ID/g; Bio-distribution, Liver ([2]; 1 h): 0.4 ± 0.06 % ID/g; Bio-distribution, Lung ([2]; 1 h): 4.4 ± 0.72 % ID/g; Bio-distribution, Muscle ([2]; 1 h): 0.8 ± 0.07 % ID/g; Bio-distribution, Pancreas ([2]; 1 h): 0.5 ± 0.13 % ID/g; Bio-distribution, Spleen ([2]; 1 h): 0.2 ± 0.07 % ID/g; Bio-distribution, Stomach ([2]; 1 h): 6.4 ± 2.33 % ID/g; Bio-distribution, Tail ([2]; 1 h): 4.3 ± 2.85 % ID/g; Bio-distribution, Tumour (Control) ([2]; A375Puro xenograft, mice culled after 1 h): 0.5 ± 0.15 % ID/g; Bio-distribution, Tumour (αvβ6) ([2]; A375Pβ6 xenograft, mice culled after 1 h): 3.7 ± 0.29 % ID/g
4 | H2N-NK (Biotin) VPNLRGDLQV[norvaline]AQKVART-OH [Peptide 8] | 0.77 ± 0.52 | 1.09 ± 0.17 | 0.84 | –
5 | H2N-NK (Biotin) VPNLRGDLQV[tert-butyl-alanine]AQKVART-OH [Peptide 11] | 0.60 ± 0.23 | 1.03 ± 0.14 | 0.62 | –
6 | H2N-NK(Biotin)VPNLRGDLQVLAQ-N-MeKVART-OH [Peptide 6] | 0.37 ± 0.12 | 0.89 ± 0.32 | 0.32 | –
7 | H2N-NK(Biotin)VPNLRGDLQVLAQKVART-NH2 [Peptide 17] | – | 1.07 ± 0.40 | 1.31 | Relative Activity value higher than the control peptide (A375Pβ6 cells): 31%
8 | H2N-NK(Biotin)VPNLRGDLQVLAQKVART-OH [Peptide 1] | 1.11 ± 0.15 | 0.84 ± 0.14 | 0.93 | –
9 | H2N-NK(Biotin)VPNLRGDLQVLAQKVARt-OH [Peptide 20] | 0.53 ± 0.44 | 0.99 ± 0.25 | 0.53 | –
10 | H2N-NK(Biotin)VPNLRGDLQVLAQ[diaminopropionic acid]VART-OH [Peptide 5] | 0.79 ± 0.14 | 0.96 ± 0.31 | 0.76 | –
11 | H2N-NK(Biotin)VPNLRGDLQVLAQ[ornithine]VART-OH [Peptide 3] | 1.12 ± 0.16 | 0.86 ± 0.29 | 0.96 | –
12 | H2N-NK(Biotin)VPNLRGDLQVLAQkVART-OH [Peptide 2] | 1.11 ± 0.15 | 0.78 ± 0.15 | 0.87 | –
13 | H2N-NK(Biotin)VPNLRGDLQV[2-amino-3-ethylpentanoic acid]AQKVART-OH [Peptide 13] | 0.70 ± 0.33 | 0.52 ± 0.23 | 0.37 | –
14 | H2N-NK(Biotin)VPNLRGDLQV[adamantylglycine]AQKVART-OH [Peptide 15] | 0.51 ± 0.28 | 1.07 ± 0.18 | 0.55 | –
15 | H2N-NK(Biotin)VPNLRGDLQV[allylglycine]AQKVART-OH [Peptide 10] | 0.58 ± 0.25 | 0.82 ± 0.25 | 0.48 | –
16 | H2N-NK(Biotin)VPNLRGDLQV[aminoisobutyric acid]AQKVART-OH [Peptide 7] | 1.07 ± 0.37 | 1.11 ± 0.3 | 1.19 | –
17 | H2N-NK(Biotin)VPNLRGDLQV[cyclohexylalanine]AQKVART-OH [Peptide 14] | 0.62 ± 0.06 | 1.01 ± 0.32 | 0.62 | –
18 | H2N-NK(Biotin)VPNLRGDLQV[homoleucine]AQKVART-OH [Peptide 12] | 0.45 ± 0.22 | 0.66 ± 0.14 | 0.27 | –
19 | H2N-NK(Biotin)VPNLRGDLQV[norleucine]AQKVART-OH [Peptide 9] | 1.16 ± 0.29 | 1.15 ± 0.04 | 1.33 | –
20 | H2N-nK(Biotin)VPNLRGDLQVLAQKVART-OH [Peptide 19] | – | 0.89 ± 0.12 | – | Average binding activity higher than the parent (commercially obtained biotinylated-A20FMDV2) ([1]; A375Pβ6, 100 nM): 43%; Relative Activity value higher than the control peptide (A375Pβ6 cells): 27%
21 | H2N-nK(Biotin)VPNLRGDLQVLAQKVARt-OH [Peptide 21] | – | 0.87 ± 0.27 | – | Relative Activity value higher than the control peptide (A375Pβ6 cells): 37%
22 | N-NK(Biotin)VPNLRGDLQVLAQ[diaminobutyric acid]VART-OH [Peptide 4] | 1.00 ± 0.07 | 0.86 ± 0.29 | 0.86 | –
